Laboratory results from paper PMC3905878 (2013).

What was measured:
[1] = tested on: Bsu preQ1 riboswitch (wild-type, smFRET construct) (RNA, riboswitch, 5-aminoallyl-uridine at 13) AGAGGUUCUAGCUACACCCUCUAUAAAAAACUAAGG; test: smFRET, fraction of high-FRET state; details: 100 mM KCl, 1 mM MgCl2; 50 mM Tris-HCl pH 7.5, room temperature; apparent; high-FRET saturates near 50%
[2] = tested on: T. tengcongensis preQ1-I riboswitch 33-mer (RNA, riboswitch) CUGGGUCGCAGUAACCCCAGUUAACAAAACAAG; test: ITC; details: 100 mM NaCl, 6 mM MgCl2; 50 mM HEPES-NaOH pH 7.0, 25 °C; Table S3 prints 7.4 ± 2.3
[3] = tested on: Tte preQ1 riboswitch (wild-type, smFRET construct) (RNA, riboswitch, 5-aminoallyl-uridine at 12) CUGGGUCGCAGUAACCCCAGUUAACAAAACAAGGG; test: smFRET, fraction of high-FRET state; details: 100 mM KCl, 1 mM MgCl2; 50 mM Tris-HCl pH 7.5, room temperature; apparent; high-FRET saturates near 50%
[4] = tested on: Bsu A27C mutant (RNA, riboswitch, 5-aminoallyl-uridine at 13) AGAGGUUCUAGCUACACCCUCUAUAACAAACUAAGG; test: smFRET, fraction of high-FRET state; details: 100 mM KCl, 1 mM MgCl2; 50 mM Tris-HCl pH 7.5, room temperature; apparent

With `NCc1c[nH]c2nc(N)[nH]c(=O)c12` as the molecule, how does the K1/2 [1] read?
The K1/2 was 134 ± 45 nM.

And the KD [2]?
Its KD is 7.3 ± 2.3 nM.

What about the K1/2 [3] of the same molecule?
Its K1/2 is 69 ± 22 nM.

And the K1/2 [4]?
The K1/2 was 11 µM.
